From publication PMC9936582, “Sulfamate Acetamides as Self-Immolative Electrophiles for Covalent Ligand-Directed Release Chemistry” (Journal of the American Chemical Society, 2023)

System: Mino cells
Test: Competitive pull-down proteomics with ibrutinib alkyne probe in Mino cells
Assay type: cell-based, human
Details: 1 µM compound 1 h
Method: (10 μM). This was followed by a reaction with biotin-azide using CuAAC, enrichment of the labeled proteins, and their quantification by tryptic digestion and LC/MS/MS analysis.
The samples were then precipitated with methanol: chloroform (1 mL of methanol, 250 μL of chloroform, and 750 μL of water), washed with 1 mL of methanol, and air-dried. The samples were solubilized and bound to streptavidin agarose beads in PBS for 3 h at 25 °C. The beads were washed, centrifuged, and resuspended in Tris 50 mM pH 8 and transferred to a clean Eppendorf tube. After this, the bound proteins were eluted by boiling with 5% SDS then reduced with DTT, alkylated with iodoacetamide, and digested with trypsin. The samples were run on LC/MS/MS. The detailed procedure is available in the Supplementary Information. The mass spectrometry proteomics data have been deposited to the ProteomeXchange Consortium via the PRIDE[67] partner repository with the dataset identifiers PXD038301 and PXD038375.
400 µL of 0.1% IGEPAL/PBS were added, and the beads were washed 3 times with 0.1% IGEPAL/PBS, 3 times PBS and 3 times water. The peptides were eluted by incubation with 200 µL of 50% acetonitrile + 0.1% TFA for 5 min, followed by two more portions of 100 µL of 50% acetonitrile + 0.1% TFA. The samples were dried by speedvac, and further purified using Oasis desalting columns (Waters), after which they were dried and run on the instrument.
Pull-down samples preparation […]
incubation with 10 μM “probe 4” for another hour. The samples were prepared in quadruplicates. The cells were washed with cold PBS, from the flasks and frozen. Then, each sample was lysed in 200 μL of […]
The protein in the supernatant was quantified using BCA. For each sample, 250 μL of 1.7 mg/mL was prepared. At this point, 5 μL of 5 mM biotin azide and 9 μL of 100 mM CuSO4/THPTA complex were added. The click reaction was initiated by the addition of 7.5 μL of 150 mM sodium ascorbate, and the samples are incubated at room temperature for 1 h. The samples were then precipitated with methanol/chloroform (1 mL methanol, 250 μL chloroform, 750 μL water), washed with 1 mL of methanol, and air-dried. […]
and heated to 95 °C for 5 min. The samples were then diluted to 1.5 mL with PBS, and 50 μL of streptavidin agarose beads, prewashed with 0.2% SDS in PBS, was added, followed by 3 h incubation at room temperature. Following the incubation, the beads were centrifuged at 2000g for 2 min and washed four times with the following buffers (4 mL in each wash): 2% SDS; 0.1% sodium deoxycholate, 1% Triton X-100, 0.5 M NaCl, 1 mM EDTA, 50 mM HEPES pH = 7.5; 0.25 M NaCl, 0.5% IGEPAL, 0.5% sodium deoxycholate, 1 mM EDTA, 10 mM Tris pH = 8.1; 50 mM Tris pH = 7.4, 50 mM NaCl. […]
with heating to 95 °C for 6 min and occasional vortexing. Finally, the beads were spun down (2 min 2000g) and 80 μL of supernatant was removed to separate tubes. […]
had cooled, 4 μL of iodoacetamide (0.2 M) were added, and the samples were incubated in the dark for 40 min at room temperature. […]
samples were diluted 6-fold with 90% methanol + 50 mM ammonium bicarbonate. The samples were then […]
loaded on S-trap micro columns (Protify), and the columns were washed three times with 150 μL of 90% methanol + 50 mM ammonium bicarbonate. Then, 20 μL of 0.05 μg/μL of trypsin in 50 mM ammonium bicarbonate was added to the columns and the samples were incubated at 47 °C for 90 min. Then, 40 μL of 50 mM ammonium bicarbonate was added, followed by centrifugation and addition of 1 μL of 0.5 μg/μL trypsin to the eluate, which was incubated at 37 °C overnight. The column itself was then eluted using 40 μL of 0.2% formic acid and 40 μL 0.2% formic acid in 50% acetonitrile into a separate tube, which was kept at 4 °C. The two eluates were then combined and evaporated. The samples were further desalted using […]

## Nc1ncnc2c1c(-c1ccc(Oc3ccccc3)cc1)nn2[C@@H]1CCCN(C(=O)COS(=O)(=O)NCc2ccccc2)C1 [3d]
4F2_HUMAN
  Log2(Fold Change): -0.3468
AATM_HUMAN
  Log2(Fold Change): 1.62
ACSF3_HUMAN
  Log2(Fold Change): 0.1421
AHNK_HUMAN
  Log2(Fold Change): 2.176
ALG1_HUMAN
  Log2(Fold Change): -0.2223
ANXA1_HUMAN
  Log2(Fold Change): 2.107
APEX1_HUMAN
  Log2(Fold Change): 0.5549
ARP3_HUMAN;ARP3B_HUMAN;ARP3C_HUMAN
  Log2(Fold Change): 0.3683
AT1A1_HUMAN;AT1A2_HUMAN;AT1A4_HUMAN;ATP4A_HUMAN;AT12A_HUMAN
  Log2(Fold Change): 0.9797
ATP5H_HUMAN
  Log2(Fold Change): 0.3377
ATPK_HUMAN
  Log2(Fold Change): 0.2949
ATPO_HUMAN
  Log2(Fold Change): -0.283
ATX10_HUMAN
  Log2(Fold Change): 0.3503
BST2_HUMAN
  Log2(Fold Change): 0.9798
BZW1_HUMAN
  Log2(Fold Change): 0.5267
C1TM_HUMAN
  Log2(Fold Change): -0.1466
CALL5_HUMAN
  Log2(Fold Change): -0.1469
CD20_HUMAN
  Log2(Fold Change): -0.02247
CD38_HUMAN
  Log2(Fold Change): 0.01573
CLCA_HUMAN
  Log2(Fold Change): -0.02966
CLH1_HUMAN;CLH2_HUMAN
  Log2(Fold Change): 2.15
COX2_HUMAN
  Log2(Fold Change): -0.2094
CRERF_HUMAN
  Log2(Fold Change): -0.7334
DD19B_HUMAN;DD19A_HUMAN
  Log2(Fold Change): -0.05233
DDX3X_HUMAN;DDX3Y_HUMAN;DDX4_HUMAN
  Log2(Fold Change): 1.382
DNJC7_HUMAN
  Log2(Fold Change): 0.6525
DSC1_HUMAN
  Log2(Fold Change): -0.7969
EF1B_HUMAN
  Log2(Fold Change): -0.6176
EPIPL_HUMAN
  Log2(Fold Change): 0.9511
FPPS_HUMAN
  Log2(Fold Change): -0.6242
GCR_HUMAN
  Log2(Fold Change): 0.4122
GLYM_HUMAN;GLYC_HUMAN
  Log2(Fold Change): 1.206
GSDMA_HUMAN
  Log2(Fold Change): 0.09253
HMCS1_HUMAN
  Log2(Fold Change): 0.6183
HXK2_HUMAN;HXK3_HUMAN
  Log2(Fold Change): 0.4444
IF4A1_HUMAN
  Log2(Fold Change): 0.3836
IF4A3_HUMAN
  Log2(Fold Change): 0.3127
IF4H_HUMAN
  Log2(Fold Change): 0.66
IGLL5_HUMAN;IGL1_HUMAN;IGLC1_HUMAN
  Log2(Fold Change): -2.924
LAPM5_HUMAN
  Log2(Fold Change): 0.7164
LAT1_HUMAN
  Log2(Fold Change): -0.2987
LMNA_HUMAN
  Log2(Fold Change): 1.21
MATR3_HUMAN
  Log2(Fold Change): 1.3535
MBB1A_HUMAN
  Log2(Fold Change): 0.0529
MCCA_HUMAN
  Log2(Fold Change): -0.3018
MIC19_HUMAN
  Log2(Fold Change): 0.1905
MP2K7_HUMAN
  Log2(Fold Change): 1.5282
NCEH1_HUMAN
  Log2(Fold Change): 1.226
NT5D1_HUMAN
  Log2(Fold Change): 2.611
NUCL_HUMAN
  Log2(Fold Change): 0.5701
OTUB1_HUMAN
  Log2(Fold Change): 0.2048
P121C_HUMAN;P121A_HUMAN
  Log2(Fold Change): 0.4168
PARK7_HUMAN
  Log2(Fold Change): 1.57
PCKGM_HUMAN
  Log2(Fold Change): 0.1766
PEBP1_HUMAN
  Log2(Fold Change): -0.8247
PEPL_HUMAN
  Log2(Fold Change): 0.8796
PFKAL_HUMAN
  Log2(Fold Change): -0.4948
PGK1_HUMAN;PGK2_HUMAN
  Log2(Fold Change): 0.5127
PIP_HUMAN
  Log2(Fold Change): 0.8481
PLAK_HUMAN;CTNB1_HUMAN
  Log2(Fold Change): -0.4311
POF1B_HUMAN
  Log2(Fold Change): 0.5955
PSA3_HUMAN
  Log2(Fold Change): 0.515
PSB8_HUMAN
  Log2(Fold Change): 0.8443
RAB1A_HUMAN;RAB1B_HUMAN;RAB1C_HUMAN
  Log2(Fold Change): 0.5794
RANG_HUMAN;IPKB_HUMAN
  Log2(Fold Change): -0.3375
RAP1B_HUMAN;RAP1A_HUMAN;RP1BL_HUMAN;RAB3D_HUMAN
  Log2(Fold Change): 0.1236
RFTN1_HUMAN
  Log2(Fold Change): 0.055
RL13A_HUMAN;R13P3_HUMAN
  Log2(Fold Change): 0.2889
RL18_HUMAN
  Log2(Fold Change): 0.278
RLA1_HUMAN
  Log2(Fold Change): 1.604
RN3P2_HUMAN
  Log2(Fold Change): -0.7545
RS28_HUMAN
  Log2(Fold Change): 1.706
RTN4_HUMAN
  Log2(Fold Change): -0.003108
RUVB2_HUMAN
  Log2(Fold Change): 0.8199
S38A1_HUMAN
  Log2(Fold Change): 0.5709
S61A1_HUMAN;S61A2_HUMAN
  Log2(Fold Change): 0.03923
SAE2_HUMAN
  Log2(Fold Change): 0.8525
SATT_HUMAN
  Log2(Fold Change): -0.2942
SCRB1_HUMAN
  Log2(Fold Change): 0.8748
SIAT1_HUMAN
  Log2(Fold Change): 0.1522
SO4A1_HUMAN
  Log2(Fold Change): 1.533
SPB4_HUMAN
  Log2(Fold Change): 2.369
SPB12_HUMAN
  Log2(Fold Change): -0.3346
SSDH_HUMAN
  Log2(Fold Change): 1.965
SUCB1_HUMAN
  Log2(Fold Change): 0.8691
TAP1_HUMAN
  Log2(Fold Change): -1.533
TAP2_HUMAN;ABCB8_HUMAN;ABCBA_HUMAN
  Log2(Fold Change): 0.8469
TBB2B_HUMAN;TBB2A_HUMAN
  Log2(Fold Change): -0.1459
TSN_HUMAN
  Log2(Fold Change): -0.1715
TX264_HUMAN
  Log2(Fold Change): 0.3926
UB2V2_HUMAN;UB2V1_HUMAN
  Log2(Fold Change): 1.306
UBP5_HUMAN
  Log2(Fold Change): -0.01896
UBP14_HUMAN
  Log2(Fold Change): 1.116
URP2_HUMAN
  Log2(Fold Change): 0.2486
USMG5_HUMAN
  Log2(Fold Change): 0.3682
VDAC1_HUMAN
  Log2(Fold Change): 0.3637
VEZA_HUMAN
  Log2(Fold Change): -0.126
XPO2_HUMAN
  Log2(Fold Change): 0.1341
XPO5_HUMAN
  Log2(Fold Change): 0.1456
ZDHC8_HUMAN
  Log2(Fold Change): -1.527
